Experimental data: US6610763B1, “Polymer composition, the production and further processing thereof into receptacles” (priority 1998, dated 2003)

Assays:
[1] = system: Klebsiella pneumoni (ATCC 4352) and Staphylococcus aureus (ATCC 6538); experiment: inhibiting zone test on agar plates; format: cell-based; details: various concentrations on 6-mm filter disks, approximately 16 hours of incubation on agar plates, FIG. 1
Description: For purposes of determining the concentration by means of the inhibiting zone tests, Klebsiella pneumoni (ATCC 4352) and Staphylococcus aureus (ATCC 6538) were bred on casein soy-meal broth (CM, oxoid), then plated out onto casein-peptone soy-meal agar (CM 131, oxoid) and incubated at 37° C. [98.6° F.]. Up to 50 μl of Irgasan DP 300 were applied onto 6-mm filter disks.
For this purpose, first of all, a test was drawn up that makes it possible to quantitatively detect the anti-microbial effect of test specimens containing 0.2% Irgasan DP 300 and Irgasan DP 300 as a pure substance. In order to examine the migration of the additive and the sensitivity of various test germs, an inhibiting zone test was conducted: test specimens were incubated on agar plates that had been inoculated with these germs. As indicators, two microorganisms were employed whose minimum inhibiting concentration (MIC) with respect to Irgasan DP 300 was between 0.01 ppm and 0.3 ppm, according to information provided by the manufacturer. The kinetics of the release of active ingredient into an aqueous solution were examined by incubating test specimens in a defined volume and by subsequently evaluating them with a spectroscope as well as in the inhibiting zone test. Both methods were calibrated by means of parallel batches with the pure substance. […]

[2] = saturation concentration in water; format: physicochemical; details: room temperature
[3] = in vivo; cited from earlier work

## Oc1cc(Cl)ccc1Oc1ccc(Cl)cc1Cl [Irgasan DP 300, 2,4,4′-trichloro-2′-hydroxydiphenyl ether]
[1]
  microbial growth in inhibiting zones: do not exhibit any microbial growth
[2]
  saturation concentration in water: about 10 ppm
[3]
  accumulation in the body: does not accumulate in the body
  toxicity in view of LD50 value: practically non-toxic
